Laboratory results published in the NIST ThermoML archive (doi:10.1016/j.jct.2003.11.008).

Legend:
[1] = xn = mol fraction of the nth substance listed; conditions: 318.15 K, 101.3 kPa, Liquid
[2] = excess molar enthalpy (molar enthalpy of mixing); xn = mol fraction of the nth substance listed; conditions: 318.15 K, 101.3 kPa, Liquid

CCCCOC(C)=O [butyl ethanoate] + CCCCCCC
Conditions | excess molar enthalpy [kcal/mol] | excess molar volume [m3/mol]
[1], x1 = 0.0555 | – | 1.92e-07
[1], x1 = 0.1132 | – | 3.36e-07
[1], x1 = 0.1672 | – | 4.34e-07
[1], x1 = 0.22 | – | 5.12e-07
[1], x1 = 0.2722 | – | 5.77e-07
[1], x1 = 0.3229 | – | 6.09e-07
[1], x1 = 0.3726 | – | 6.31e-07
[1], x1 = 0.4298 | – | 6.52e-07
[1], x1 = 0.4755 | – | 6.52e-07
[1], x1 = 0.5265 | – | 6.24e-07
[1], x1 = 0.5779 | – | 5.89e-07
[1], x1 = 0.6271 | – | 5.55e-07
[1], x1 = 0.6607 | – | 5.13e-07
[1], x1 = 0.7709 | – | 3.86e-07
[1], x1 = 0.8611 | – | 2.64e-07
[1], x1 = 0.9342 | – | 1.22e-07
[2], x1 = 0.0596 | 0.0656 | –
[2], x1 = 0.1274 | 0.12 | –
[2], x1 = 0.1982 | 0.165 | –
[2], x1 = 0.2667 | 0.196 | –
[2], x1 = 0.3335 | 0.218 | –
[2], x1 = 0.3922 | 0.23 | –
[2], x1 = 0.4492 | 0.235 | –
[2], x1 = 0.5003 | 0.236 | –
[2], x1 = 0.5104 | 0.235 | –
[2], x1 = 0.5381 | 0.234 | –
[2], x1 = 0.5567 | 0.232 | –
[2], x1 = 0.6057 | 0.224 | –
[2], x1 = 0.6593 | 0.211 | –
[2], x1 = 0.7144 | 0.19 | –
[2], x1 = 0.7729 | 0.161 | –
[2], x1 = 0.8331 | 0.126 | –
[2], x1 = 0.8932 | 0.0849 | –
[2], x1 = 0.9488 | 0.0439 | –

CCCCCOC(C)=O [pentyl ethanoate] + CCCCCCCCC
Conditions | excess molar enthalpy [kcal/mol] | excess molar volume [m3/mol]
[1], x1 = 0.0672 | – | 1.52e-07
[1], x1 = 0.1243 | – | 2.83e-07
[1], x1 = 0.1813 | – | 4.14e-07
[1], x1 = 0.2354 | – | 5.13e-07
[1], x1 = 0.3037 | – | 5.97e-07
[1], x1 = 0.3405 | – | 6.3e-07
[1], x1 = 0.3995 | – | 6.66e-07
[1], x1 = 0.4479 | – | 6.75e-07
[1], x1 = 0.5035 | – | 6.77e-07
[1], x1 = 0.5492 | – | 6.64e-07
[1], x1 = 0.6071 | – | 6.24e-07
[1], x1 = 0.6461 | – | 5.91e-07
[1], x1 = 0.685 | – | 5.48e-07
[1], x1 = 0.7852 | – | 4.49e-07
[1], x1 = 0.8739 | – | 3.42e-07
[1], x1 = 0.9451 | – | 2.1e-07
[2], x1 = 0.0676 | 0.0718 | –
[2], x1 = 0.1364 | 0.126 | –
[2], x1 = 0.2097 | 0.173 | –
[2], x1 = 0.2818 | 0.207 | –
[2], x1 = 0.3491 | 0.228 | –
[2], x1 = 0.4124 | 0.239 | –
[2], x1 = 0.4692 | 0.243 | –
[2], x1 = 0.5191 | 0.239 | –
[2], x1 = 0.5639 | 0.232 | –
[2], x1 = 0.621 | 0.216 | –
[2], x1 = 0.6739 | 0.202 | –
[2], x1 = 0.7288 | 0.181 | –
[2], x1 = 0.7858 | 0.154 | –
[2], x1 = 0.8432 | 0.12 | –
[2], x1 = 0.8986 | 0.0826 | –
[2], x1 = 0.9529 | 0.0421 | –
